Consider six compounds from patent US4859682A, “2-Halogenated-8- and 1,8-substituted ergolenes” (Richter Gedeon Vegyeszeti Gyar Rt., priority 1986, dated 1989).

Data set [1] in a line: Investigation of the cataleptogenic effect (catalepsy). It counts as in vivo, Hann-Wistar rats (male). As to conditions: rats; for ED50 at 5 h: rat, in vivo, po, hourly observed for 5 hours; for Catalepsy (percent): 60 mg/kg p.o. Here is the method:
(§1) The investigations were carried out on Hann-Wistar (LATI=a Hungarian firm with the name "Institute for Breeding Laboratory Animals") rats and CFLP (LATI) mice. The compounds to be tested were orally administered in a volume of 5 ml/kg of body-weight (abbreviated: ml/kg) to rats and in a volume of 10 ml/kg to mice 60 minutes before starting the experiment.
(§2) The substances were suspended in a solution of Tween 80 of 0.5% strength and then diluted to the desired concentration with physiological saline solution.
(§3) The results are expressed as percentages or, alternatively the ED50 values together with the 95% fiducial limits are given as calculated by means of the probit analysis [J. T. Litschfield and F. Wilcoxon: J. Pharmacol. 96, 99 (1949)].
2. Investigation of the cataleptogenic effect
The method of G. Stile and H. Launer [Arzneim.-Forsch. 21, 252 (1971)] was used for this test.
Male rats weighing 90 to 110 g (n=6) were treated with different doses of the compounds to be tested, then the number of the animals showing catalepsy was hourly observed for 5 hours.

The conditions of data set [2]: H. Watchel et al., Life Sci. 33, 2583; cited from earlier work.
Data set [3] is described as follows: Inhibition of the conditioned avoidance response (CAR inhibition). It counts as in vivo, Hann-Wistar rats (male). The conditions noted are these: rats; for ED50: Rattus norvegicus, po, 1 h, p.o., 60 min before test. Here is the method: as §1, §2, §3
1. Inhibition of the conditioned avoidance response (CAR inhibition)
The method of D. Bovet et al. (in: Neuropsychopharmacology Vol. 2., p. 142 ed. Elsevier Publishing House, Amsterdam, 1961) was used for this test.
Male rats weighing 140 to 160 g were conditioned for 10 days in an automated six-channel shuttle box (VKI). Each one session consisted of 30 cycles; the time of the partial cycles was 15 seconds for intersignal time, 15 seconds for light stimulus, 10 seconds for light stimulus and footshock (0.8 mA). The selected animals (n=6; selected on the basis of a performance higher than 80% at the 10th day) were treated with a 20 mg/kg dose of the compounds to be tested before the 11th session and their performance (i.e. the mean of the number of the conditioned avoidance responses) was compared to the value obtained for each group at the previous day taken as control value.

Data set [4] is described as follows: Investigation of the amphetamine group toxicity. The class given is in vivo, CFLP mice. The conditions noted are these: d-amphetamine 21 mg/kg i.p., 24 hours, mice; for Amphetamine group tox. (percent): 30 mg/kg p.o. Here is the method: as §1, §2, §3
3. Investigation of the amphetamine group toxicity
The method of C. D. Proctor et al. [Arch. Int. Pharmacodyn. Ther. 163, 74 (1966)] was used for this test.
The examination was carried out on mice of both sexes weighing 22 to 27 g (n=5). At the 60th minute after administration of the compounds to be tested in a dose of 30 mg/kg, d-amphetamine in a dose of 21 mg/kg was intraperitoneally given to the animals tightly closed together (25 cm^2 /mouse) and the percentage of the perished animals was registered after 24 hours.

The test system of the next data set is dopaminergic system. Briefly: Investigation of the apomorphine hypothermia-reverting effect. It counts as in vivo, Hann-Wistar rats. The conditions noted are these: 10 mg/kg p.o., apomorphine 5 mg/kg i.p., rats. How it is done:
as §1, §2, §3
4. Investigation of the apomorphine hypothermia-reverting effect
The method of A. Barnett et al. [Arch. Int. Pharmacodyn. Ther. 198, 242 (1972)] was used for this test.
The rectal temperature of rats (n=5) was determined by using an Ellab thermometer before administering the compounds to be tested in a dose of 10 mg/kg. Thereafter, a dose of 5 mg/kg of apomorphine was intraperitoneally given and the temperature of the animals was hourly registered for 3 hours.
The significant apomorphine-antagonizing action (reversion of the hypothermia) of the compounds is a proof of inhibition of the dopaminergic system.

Data set [5] in a line: Investigation of the asphyxial anoxia. The class given is in vivo, CFLP mice. The conditions noted are these: for ED50: Mus musculus, po, 1 h, survival time longer by 30% than control = protected; for ED50 / Asphyxial anoxia (percent): mice; for Asphyxial anoxia (percent): 50 mg/kg p.o. How it is done:
as §1, §2, §3
5. Investigation of the asphyxial anoxia
The method of C. Caillard et al. [Life Sci. 16, 1607 (1975)] was used for this test.
Mice (n=5) of both sexes weighing 22 to 24 g were starved for 16 hours, then treated with a 50 mg/kg dose of the compounds to be tested. After 60 minutes, the animals were placed in tightly closed glass bottles of 100 ml volume and the survival time was registered.

Where a name gives a salt, the structure may show the parent alone.

As to `CCN(CC)C(=O)NC1C=C2c3cccc4[nH]c(Br)c(c34)CC2N(C)C1` (stereo not drawn) [2-Bromolysuride, 2-bromolysuride, reference compound], in data set [1], the ED50 – broadly, the dose that gives a 50% effect, or the effect in half of the subjects – at 5 h was 3.3 mg/kg. Further, in data set [2], the “neuroleptic effect (in words)” value is given as “strong neuroleptic effect”.

On to `CC(=O)OCC1C=C2c3cccc4c3c(c(Cl)n4C(C)=O)CC2N(C)C1` (stereo not drawn) [A, 1-Acetyl-8-acetyloxymethyl-2-chloro-6-methyl-9-ergolene], for which the ED50 in data set [3] was found to be 3.4 mg/kg; in data set [4] (Mus musculus, po, read-out: Amphetamine group tox. ED50), 19.6 mg/kg; in data set [5], 34.8 mg/kg. The compound also showed an ED50 at 5 h in data set [1] of 46.5 mg/kg. In addition, the “Apomorphine hypothermia, difference of temperature change vs. apomorphine alone, 60 min” value in the data set on dopaminergic system was “+1.3 °C”. In the data set with dopaminergic system, the “Apomorphine hypothermia, difference of temperature change vs. apomorphine alone, 120 min” value was “+1.3 °C”.

Consider `CC(=O)OCC1C=C2c3cccc4c3c(c(Cl)n4C=O)CC2N(C)C1` (stereo not drawn) [B, 8-acetyloxymethyl-2-chloro-1-formyl-6-methyl-9-ergolene hydrogen sulfate], for which the 50% effect level in data set [3] (ED50) was put at a dose of 3.7 mg/kg. Further, the ED50 at 5 h in data set [1] was 51.9 mg/kg. In addition, the “Amphetamine group tox. (percent)” value in data set [4] is listed as 10%. Moreover, in the data set on dopaminergic system, the “Apomorphine hypothermia, difference of temperature change vs. apomorphine alone, 60 min” value is “+2.0 °C” and the “Apomorphine hypothermia, difference of temperature change vs. apomorphine alone, 120 min” value is “+2.4 °C”. The “Asphyxial anoxia (percent)” value in data set [5] turned out to be 20%.

The compound `CN1CC(CCl)C=C2c3cccc4c3c(c(Cl)n4C=O)CC21` (stereo not drawn) [C, 2-chloro-8-chloromethyl-1-formyl-6-methyl-9-ergolene] yielded an ED50 in data set [3] of 12.9 mg/kg. The “Catalepsy (percent)” value in data set [1] was determined as 0%. The “Amphetamine group tox. (percent)” value in data set [4] was 0%. For the same compound, in the data set on dopaminergic system, the “Apomorphine hypothermia, difference of temperature change vs. apomorphine alone, 60 min” value was “+0.6 °C” and the “Apomorphine hypothermia, difference of temperature change vs. apomorphine alone, 120 min” value was “+1.2 °C”. Further, the “Asphyxial anoxia (percent)” value in data set [5] is 50%.

In data set [3], `CC(=O)OCC1C=C2c3cccc4c3c(c(Br)n4C(C)=O)CC2N(C)C1` (stereo not drawn) [D, 1-acetyl-8-acetyloxymethyl-2-bromo-6-methyl-9-ergolene] showed an ED50 of 4.6 mg/kg. In data set [1], this compound gave an ED50 at 5 h of 42.4 mg/kg. Further, the “Amphetamine group tox. (percent)” value in data set [4] turned out to be 0%. Besides, in the data set with dopaminergic system, the “Apomorphine hypothermia, difference of temperature change vs. apomorphine alone, 60 min” value was “+0.9 °C” and the “Apomorphine hypothermia, difference of temperature change vs. apomorphine alone, 120 min” value is “+1.7 °C”. Moreover, the “Asphyxial anoxia (percent)” value in data set [5] came out at 50%.

Turning to `CN1CC(CO)C=C2c3cccc4c3c(c(Cl)n4C)CC21` (stereo not drawn) [E, 2-chloro-1,6-dimethyl-8-hydroxymethyl-9-ergolene maleate], the “CAR inhibition (percent)” value in data set [3] (20 mg/kg p.o.) is 24%. For the same compound, the “Catalepsy (percent)” value in data set [1] was determined as 0%. Besides, the “Amphetamine group tox. (percent)” value in data set [4] is 0%. In the data set on dopaminergic system, the “Apomorphine hypothermia, difference of temperature change vs. apomorphine alone, 60 min” value is “+0.8 °C” and the “Apomorphine hypothermia, difference of temperature change vs. apomorphine alone, 120 min” value is “+1.8 °C”. The ED50 in data set [5] worked out at 8.6 mg/kg. Moreover, in data set [5] (mice p.o.), the “antihypoxic effect (in words)” value was “the antihypoxic effect comes into prominence”.
